Like-named read-outs stand apart in the source and are kept apart here. Some results are limits rather than exact numbers.

The subject of test [1] is synuclein phosphorylation by endogenous kinase. Nature of the test: kinase inhibitor treatment of rat ventral mesencephalon (RVM) cultures transduced with E46K-synuclein. It counts as cell-based. On the procedure: (§1) Rat Ventral Mesencephalon (RVM) cultures were prepared from E15 Wistar rats. The RVM cultures were cultured for 2 days and transduced with 0.75 MOI E46K-Synuclein lentivirus alone, or 0.75 MOI E46K-Synuclein lentivirus plus 0.75 MOI ca-PLK2 lentivirus. […] Transduced cultures were maintained in neuronal media with B27/1% FBS and 37° C./5% CO2 until treated with inhibitors. On DIV 17 (which corresponds to 15 days after viral transduction of the cultures) cells were treated with inhibitors for two hours. Cells were then harvested as detailed above in neuronal media with B27/1% FBS. A Micro BCA (Pierce) total protein assay, and total synuclein and phospho-synuclein ELISAs were performed on each plate of treated cells using standard methods.

Test [2] deals with synuclein phosphorylation by constitutively active PLK2 (caPLK2). Nature of the test: kinase inhibitor treatment of RVM cultures transduced with E46K-synuclein plus ca-PLK2. It is filed as cell-based. Particulars: rat ventral mesencephalon cultures. On the procedure: as §1
The subject of test [3] is synuclein phosphorylation (serine-129). Nature of the test: inhibition of synuclein phosphorylation across the cellular paradigms (primary neuronal cultures and 293 cells). It is filed as cell-based, mouse, rat and human. Particulars: for EC50: Homo sapiens.
The target of test [4] is T1, PLK2 (Homo sapiens, UniProt Q9NYY3). Nature of the test: in vitro biochemical assay of PLK2-driven synuclein phosphorylation. On the procedure:
The reaction was incubated at 37° C. The activity was analyzed by autoradiography.
In vitro biochemical assays using each of the four PLK family members as the kinase to phosphorylate synuclein were conducted.

In test [5] the test system is endogenous kinase (synuclein phosphorylation). The test can be described thus: HEK-293 cells overexpressing synuclein with empty vector, inhibition of synuclein phosphorylation. It counts as cell-based, human. The settings on record: for rank order of potency, Endogenous Kinase (293): Table 19. On the procedure: (§2) All vectors had the sequence coding for the protein of interest. Transfection was accomplished using Lipofectamine 2000 (Invitrogen, Carlsbad, Calif.) with 0.08 μg vector. Cells were washed and harvested 48 hours post-transfection. A Micro BCA (Pierce) total protein assay and total synuclein and phospho-synuclein ELISAs were performed on each plate of treated cells.

The target of a further test is T2, PLK3 (Homo sapiens, UniProt Q9H4B4).
T2 construct: expressed in transfected cells; host or cells: HEK-293
The test can be described thus: HEK-293 cells overexpressing synuclein and PLK3, inhibition of synuclein phosphorylation. It counts as cell-based. On the procedure: as §2

Another test has as its target T3, PLK4 (Homo sapiens, UniProt O00444).
T3 sequence (O00444 1-970): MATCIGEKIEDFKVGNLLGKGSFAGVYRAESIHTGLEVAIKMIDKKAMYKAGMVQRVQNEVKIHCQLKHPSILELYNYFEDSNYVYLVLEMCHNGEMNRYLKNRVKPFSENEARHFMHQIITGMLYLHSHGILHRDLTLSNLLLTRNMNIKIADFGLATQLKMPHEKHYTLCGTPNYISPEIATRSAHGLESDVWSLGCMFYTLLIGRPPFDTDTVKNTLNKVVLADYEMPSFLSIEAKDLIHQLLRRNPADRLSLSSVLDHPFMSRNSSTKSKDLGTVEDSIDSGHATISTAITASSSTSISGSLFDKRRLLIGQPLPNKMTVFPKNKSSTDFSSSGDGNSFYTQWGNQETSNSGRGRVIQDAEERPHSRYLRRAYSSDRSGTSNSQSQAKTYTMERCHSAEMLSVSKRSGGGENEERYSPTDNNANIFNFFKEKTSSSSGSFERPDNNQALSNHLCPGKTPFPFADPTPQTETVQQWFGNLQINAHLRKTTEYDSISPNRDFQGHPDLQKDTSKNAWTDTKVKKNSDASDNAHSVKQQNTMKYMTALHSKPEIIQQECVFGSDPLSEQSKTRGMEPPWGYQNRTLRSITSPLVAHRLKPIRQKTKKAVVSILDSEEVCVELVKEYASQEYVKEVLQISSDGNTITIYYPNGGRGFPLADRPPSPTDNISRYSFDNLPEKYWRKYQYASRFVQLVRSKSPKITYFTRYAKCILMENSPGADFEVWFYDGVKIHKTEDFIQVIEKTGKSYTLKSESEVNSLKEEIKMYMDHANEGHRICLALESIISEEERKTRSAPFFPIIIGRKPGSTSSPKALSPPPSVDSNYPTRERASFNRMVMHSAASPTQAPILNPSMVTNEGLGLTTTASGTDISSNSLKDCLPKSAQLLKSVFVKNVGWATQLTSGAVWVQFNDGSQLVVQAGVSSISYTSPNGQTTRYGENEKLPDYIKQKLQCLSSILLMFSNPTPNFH
Nature of the test: HEK-293 cells overexpressing synuclein and PLK4, inhibition of synuclein phosphorylation. It is filed as cell-based. Particulars: HEK-293. On the procedure: as §2

Test [6] concerns the target T1, PLK2. Nature of the test: HEK-293 cells overexpressing synuclein and PLK2, inhibition of synuclein phosphorylation. It counts as cell-based. More on the design: expressed in transfected cells; host or cells: HEK-293. On the procedure: as §2
The subject of test [7] is synuclein phosphorylation by endogenous kinase. The test can be described thus: kinase inhibitor treatment of mouse cortical cultures (MCC), total and phospho-synuclein ELISA. It is filed as cell-based. On the procedure: Mouse cortical cultures from fetal (i) Swiss-Webster, (ii) C56BL/6 WT and (iii) C56BL/6 E46K-Synuclein Trangenic mice were prepared and maintained in B27/DMEM/1% Penicillin-Streptomycin at 37° C./10% CO2 for three to fourteen days and then treated with kinase inhibitors.
Cultures were exposed to inhibitors for two hours in B27/DMEM/1% Penicillin-Streptomycin. Cells were immediately washed in 100 μL of PBS plus Mg^2+ and Ca^2+, and harvested in ice-cold CEB minus EGTA plus protease inhibitors, frozen on dry ice and stored at −80° C. until processed. A Micro BCA (Pierce) total protein assay, and total synuclein and phospho-synuclein ELISAs were performed on each plate of treated cells using standard methods.

The test system of test [8] is brain p-synuclein (p-Ser129). Nature of the test: in vivo inhibition of phosphorylation of synuclein in wild-type FVB mice, brain western blot. More on the design: species or system mouse. The settings on record: IV tail vein 50 mg/kg. On the procedure: The examples above describe the identification and in vitro validation of polo-like kinase 2 (PLK2) as an α-synuclein Ser 129-specific kinase. This example describes the ability of a kinase inhibitor (BI 2561) to decrease phosphorylation of α-synuclein in vivo. Wild-type FVB mice were treated by IV tail vein with 50 mg/kg of the PLK-specific inhibitor. Total α-synuclein and p-synuclein levels in brain (p-Ser129) were analyzed by western blot.

Test [9] deals with synuclein phosphorylation. Nature of the test: overexpression of PLK family members with WT-synuclein in HEK-293 cells, phospho-synuclein ELISA. It is filed as cell-based, human. On the procedure:
HEK-293 naïve cells were transfected with an expression vector encoding PLK1, PLK2, PLK3, or PLK4 under the control of a CMV promoter, or empty vector, together with an expression vector encoding WT-synuclein. All vectors had the sequence coding for the protein of interest. Transfection was accomplished using Lipofectamine 2000 (Invitrogen, Carlsbad, Calif.) with 0.08 μg vector. Cells were washed and harvested 48 hours post-transfection. A Micro BCA (Pierce) total protein assay and total synuclein and phospho-synuclein ELISAs were performed on each plate of treated cells.

The mark [10] stands for this setting: PLK2-driven synuclein phosphorylation, read-out: IC50 in the in vitro biochemical assay.
[11] abbreviates: 293 cells, Table 18, read-out: EC50, Over-Expressed PLK2 (293).
Where [12] appears, read: E46K-Synuclein transgenic mouse cortical cultures, read-out: EC50, E46K-Syn TG MCC.
The mark [13] stands for this setting: WT mouse cortical cultures, read-out: EC50, WT-MCC.
Setting [14] is: in vitro PLK2-driven synuclein phosphorylation, read-out: IC50, Straight Biochemical.
Where [15] appears, read: Homo sapiens, HEK293, 293 cells, Table 18, read-out: EC50, Endogenous Kinase (293).

T1 sequence (Q9NYY3 whole entry): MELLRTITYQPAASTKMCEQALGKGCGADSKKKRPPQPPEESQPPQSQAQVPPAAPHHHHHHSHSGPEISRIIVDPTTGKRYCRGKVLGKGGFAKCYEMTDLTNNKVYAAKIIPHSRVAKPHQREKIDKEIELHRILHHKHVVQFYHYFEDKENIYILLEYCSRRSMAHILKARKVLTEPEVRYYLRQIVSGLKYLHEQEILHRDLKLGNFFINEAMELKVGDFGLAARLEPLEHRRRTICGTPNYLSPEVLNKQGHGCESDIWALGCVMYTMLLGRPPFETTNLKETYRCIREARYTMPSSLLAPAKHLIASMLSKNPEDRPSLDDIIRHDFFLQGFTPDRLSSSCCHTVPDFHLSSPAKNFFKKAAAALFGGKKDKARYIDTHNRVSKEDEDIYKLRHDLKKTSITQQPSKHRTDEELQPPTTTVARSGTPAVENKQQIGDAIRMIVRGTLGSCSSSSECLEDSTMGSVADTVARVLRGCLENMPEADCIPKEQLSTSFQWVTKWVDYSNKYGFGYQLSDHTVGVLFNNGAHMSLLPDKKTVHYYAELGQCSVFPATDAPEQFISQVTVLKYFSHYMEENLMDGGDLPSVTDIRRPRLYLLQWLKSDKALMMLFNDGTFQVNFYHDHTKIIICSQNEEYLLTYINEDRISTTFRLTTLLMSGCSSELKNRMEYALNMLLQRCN
T2 sequence (Q9H4B4 whole entry): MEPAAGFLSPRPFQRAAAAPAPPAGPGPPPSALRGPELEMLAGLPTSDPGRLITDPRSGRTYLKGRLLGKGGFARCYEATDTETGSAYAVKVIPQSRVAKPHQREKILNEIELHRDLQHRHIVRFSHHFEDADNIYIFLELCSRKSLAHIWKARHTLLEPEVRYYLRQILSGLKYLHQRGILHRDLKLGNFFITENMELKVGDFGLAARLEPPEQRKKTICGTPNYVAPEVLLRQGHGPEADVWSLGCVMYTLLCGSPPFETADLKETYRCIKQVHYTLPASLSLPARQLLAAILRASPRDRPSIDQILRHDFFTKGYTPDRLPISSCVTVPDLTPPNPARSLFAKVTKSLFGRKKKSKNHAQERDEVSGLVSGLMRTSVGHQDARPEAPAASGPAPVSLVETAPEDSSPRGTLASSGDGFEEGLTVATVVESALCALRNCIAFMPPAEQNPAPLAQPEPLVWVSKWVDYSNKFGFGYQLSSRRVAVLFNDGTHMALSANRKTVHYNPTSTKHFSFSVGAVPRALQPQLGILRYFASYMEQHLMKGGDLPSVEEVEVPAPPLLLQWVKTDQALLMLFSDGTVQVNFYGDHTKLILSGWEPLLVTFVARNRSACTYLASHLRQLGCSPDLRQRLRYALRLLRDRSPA

For the compound `NC(=O)c1sc2c([N+](=O)[O-])cc(C(F)(F)F)cc2[n+]1[O-]` [ELN-481080], the EC50 in [1] is approximately 100 µM; in test [2] it was 25.2 µM; in test [3] (HEK293, most of the cellular paradigms / cell types tested, read-out: EC50 inhibition of synuclein phosphorylation, cellular paradigms), 12 to 38 µM; in test [5] (Homo sapiens, HEK293, read-out: EC50, Endogenous Kinase (293)), approximately 100 µM; in test [5] (Homo sapiens, HEK293, read-out: EC50 synuclein phosphorylation, endogenous kinase, previous experiments) it was approximately 100 µM; in test [5] (Homo sapiens, HEK293, HEK-293, Example 16, Table 21, read-out: EC50 Based on the Percent Inhibition of Synuclein Phosphorylation, Synuclein + Vector), more than 100 µM. Besides, the EC50 on PLK3 (HEK-293, Example 16, Table 21, read-out: EC50 Based on the Percent Inhibition of Synuclein Phosphorylation, Synuclein + PLK3) is more than 100 µM; at PLK2 [6] (setting [11]), 38 µM. For the same compound, the IC50 at PLK2 [4] (setting [10]) amounted to 7.7 µM. Further, the “rank order of potency, Straight Biochemical” value on PLK2 [4] (rank among 8 inhibitors) was determined as 3. Besides, in [5] (293 cells), the “rank order of potency, Endogenous Kinase (293)” value came out at 4. Moreover, the “EC50 synuclein phosphorylation, over-expressed PLK3” value at PLK3 (HEK-293) is listed as “not reached”. Moreover, the “Rank Order of Potency Based on Percent Inhibition of Synuclein Phosphorylation, Synuclein + PLK3” value at PLK3 (HEK-293, Table 22) amounted to 3. Moreover, the “inhibition of synuclein phosphorylation, over-expressed PLK3” value against PLK3 (at concentrations of 30-100 μM) is given as 30-40%. In addition, at PLK4, the “EC50 synuclein phosphorylation, over-expressed PLK4” value is given as “not reached”. For the same compound, the “rank order of potency, Over-Expressed PLK2 (293)” value on PLK2 [6] (293 cells, Table 19) is listed as 5. Also, on PLK2 [6] (HEK-293, Table 22), the “Rank Order of Potency Based on Percent Inhibition of Synuclein Phosphorylation, Synuclein + PLK2” value stood at 3.

Take `Brc1c(Br)c(Br)c2[nH]nnc2c1Br` [TBB]: the “effect on synuclein phosphorylation” value in [7] (MCC, even at concentrations of 100 μM) was “no effect”.

Regarding `COC[C@H]1OC(=O)c2coc3c2[C@@]1(C)C1=C(C3=O)[C@@H]2CCC(=O)[C@@]2(C)C[C@H]1OC(C)=O` [Wortmannin], the EC50 (in [7] (setting [12]); in [7] (setting [13]); in test [1]; in [2]; in test [5] (setting [15]); at PLK2 [6]) was more than 100 µM throughout. Besides, the IC50 on PLK2 [4] (setting [14]) was more than 100 µM.

In the case of Scytonemin, the EC50 in test [7] (setting [12]) was more than 100 µM; in test [7] (setting [13]), more than 100 µM; in [1], more than 100 µM; in [2], more than 100 µM; in test [5] (293 cells, Table 18, read-out: EC50, Endogenous Kinase (293)), more than 100 µM; on PLK2 [6] (setting [11]) it was more than 100 µM. In addition, in test [3] (cell types tested), the “inhibition of 50% of synuclein phosphorylation in cells” value is listed as “did not inhibit 50%”. Also, at PLK2 [4] (PLK2-driven phosphorylation in vitro), the “inhibition of 50% of synuclein phosphorylation in the in vitro assay” value is recorded as “did not inhibit 50%”. Further, the IC50 on PLK2 [4] (setting [14]) was more than 100 µM.

As to `COC(=O)[C@@]1(O)C[C@H]2O[C@]1(C)n1c3ccccc3c3c4c(c5c6ccccc6n2c5c31)C(=O)NC4` [Compound K252A], in test [7] (E46K-Synuclein transgenic mouse cortical cultures), the “rank order of potency, E46K-Syn TG MCC” value is given as 2. The EC50 in test [7] (setting [12]) is 3.1 µM; in test [7] (Swiss-Webster mouse cortical cultures, read-out: EC50, Swiss-Webster MCC), 2.9 µM; in test [7] (setting [13]) it was 3 µM; in test [1] it was 3.2 µM; in test [2], 3.5 µM; in [3] (HEK293, read-out: EC50 inhibition of synuclein phosphorylation, cellular paradigms) it was 3 to 7 µM. For the same compound, the EC50 came out at 3.6 µM in [5] (setting [15]) and 7.1 µM at PLK2 [6] (setting [11]). In addition, the “rank order of potency, Swiss-Webster MCC” value in test [7] (Swiss-Webster mouse cortical cultures) was 2. Moreover, the “rank order of potency, WT-MCC” value in test [7] (WT mouse cortical cultures) is 2. Further, in test [1], the “rank order of potency, RVM E46K-Synuclein” value is given as 3. For the same compound, the “rank order of potency, RVM E46K-Synuclein caPLK2” value in test [2] is given as 2. Further, the “rank order of potency, Straight Biochemical” value at PLK2 [4] amounted to 4. Besides, the IC50 on PLK2 [4] (setting [10]) and at PLK2 [4] (setting [14]) was more than 10 µM throughout. For the same compound, the “rank order of potency, Endogenous Kinase (293)” value in test [5] (293 cells) worked out at 2. Moreover, the “rank order of potency, Over-Expressed PLK2 (293)” value on PLK2 [6] is listed as 2.

With `CC[C@@H]1C(=O)N(C)c2cnc(Nc3ccc(C(=O)NC4CCN(C)CC4)cc3OC)nc2N1C1CCCC1` [BI 2561], the “total α-synuclein levels in brain, western blot” value in test [8] was “no effect”. Moreover, the “brain p-synuclein levels (p-Ser129), western blot” value in [8] (from 1 hour to 6 hours after treatment) is listed as “clear decrease”.

For the compound Over-Expressed PLK1, in test [9] (48 hours post-transfection, with WT-synuclein), the “Proportion of total synuclein that is phoshorylated at ser-129” value is listed as 4.1%. The “Fold Change in Percent Synuclein Phosphorylation” value in test [9] (relative to endogenous kinase (2.0%)) is on record as 2.1.

The values are drawn from US20110207796A1, “ALPHA-SYNUCLEIN KINASE” (Elan Pharma International Limited, priority 2008, published 2011).
